For one data set, the system named is mice. Particulars: S. D. Comer et al. 1993; cited from earlier work.
The next data set has as its system guinea pig ileum (GPI). The data set can be described thus: Guinea pig ileum (GPI) bioassay: inhibition of electrically evoked contractions. It counts as cell-based. Particulars: normalized with [Leu5]enkephalin standard, effect primarily μ-mediated. The procedure:
(§1) Bioassays based on inhibition of electrically evoked contractions of the mouse vas deferens (MVD) and of the guinea pig ileum (GPI) were performed. In the GPI assay the opioid effect is primarily mediated by μ opioid receptors, whereas in the MVD assay the inhibition of the contractions is mostly due to interaction with δ opioid receptors.
(§2) The GPI and MVD bioassays were carried out as reported in P. W. Schiller et al., Biochem. Biophys. Res. Commun. 85, 1332-1338 (1978) and J. DiMaio et al., J. Med. Chem. 25, 1432-1438 (1982). A log-dose response curve was determined with [Leu^5 ]enkephalin as standard for each ileum and vas preparation, and IC50 values of the compounds being tested were normalized according to A. A. Waterfield et al., Eur. J. Pharmacol. 58, 11-18 (1979).

A further data set deals with mouse vas deferens (MVD). The data set can be described thus: Mouse vas deferens (MVD) bioassay: inhibition of electrically evoked contractions. The format is cell-based. Conditions: for IC50: inhibition of electrically evoked contractions, normalized with [Leu5]enkephalin standard, effect mostly δ-mediated; for GPI/MVD IC50 ratio: ratio of GPI IC50 to MVD IC50. On the procedure:
as §1, §2

Data set [1] concerns the target T1, δ opioid receptor (Rattus norvegicus, UniProt P33533).
T1 construct: Male Sprague-Dawley rats (300-350 g) from the Canadian Breeding Laboratories were decapitated and after removal of the cerebellum the brains were homogenized; from tissue; host or cells: rat brain (without cerebellum) membranes, male Sprague-Dawley
The data set can be described thus: δ opioid receptor binding assay, displacement of [3H]DSLET from rat brain membranes. Conditions: for Ki: rat brain membranes, [3H]DSLET 1.0 nM, Cheng-Prusoff; for Ki^μ/Ki^δ: δ versus μ receptor selectivity. On the procedure: (§3) μ and δ opioid receptor binding constants (Ki^μ,Ki^δ) of the compounds were determrined by displacement of relatively selective μ and δ radioligands from binding sites in rat brain membrane preparations calculated from the measured IC50 values on the basis of the equation by Cheng and Prusoff, (Y. C. Cheng and W. H. Prusoff Biochem. Pharmnacol. 22, 3099-3102 (1973)).
The μ-, δ- and κ-opioid receptor affinities of all new analogs were determined in binding assays based on displacement of μ-, δ- and κ-selective radioligands from rat brain membrane binding sites. In the case of κ-ligands guinea pig brain homogenates were used, since the relative proportion of κ-binding sites is higher in guinea pig brain than in rat brain. The experimental procedure being used in our laboratory represents a modified version of the binding assay described by Pasternak et al. (Mol. Pharnacol. 11, 340-351 (1975)). Male Sprague-Dawley rats (300-350 g) from the Canadian Breeding Laboratories were decapitated and after removal of the cerebellum the brains were homogenized in 30 volumes of ice-cold standard buffer (50 mnM Tris HCl , pH 7.7). After centrifugation at 30,000×g for 30 min at 4° C. the membranes were reconstituted in the original volume of standard buffer and incubated for 30 min at 37° C. (to release bound endogenous ligands). Subsequent centrifugation and resuspension of the pellet in the initial volume of fresh standard buffer yielded the final membrane suspension. Aliquots (2 ml) of the membrane preparations were incubated for 1-2 h at 25° C. with 1 ml standard buffer containing the peptide to be tested and one of the following radioligands at the final concentration indicated: [^3 H]DAMGO, μ-selective, 0.7 nM; […]; and [^3 H]U69,563, κ-selective, 0.5 nM. The incubation was terminated by filtration through Whatman GF/B filters under vacuum at 4° C. Following two washings with 5 ml portions of ice-cold standard buffer the filters were transferred to scintillation vials and treated with 1 ml Protosol (New England Nuclear) for 30 min prior to addition of 0.5 ml acetic acid and 10 ml Aquasol (New England Nuclear). After shaking for 30 min the vials were counted at an efficiency of 40-45%. All experiments were performed in duplicate and repeated at least three times. Specific binding of each of the three radioligands was defined by performing incubations in the presence of cold DAMGO, DSLET and U69,563, respectively, at a concentration of 1 micromolar. Values of half-maximal inhibition (IC50) of specific binding were obtained graphically from semilogarithmic plots. From the measured IC50-values, binding inhibition constants (Ki) were calculated based on Cheng and Prusoff's equation (Biochem. Pharmacol. 22, 3099-3102 (1973)). Ratios of the Ki -values determined in the μ-, δ- and κ-representative binding assays are a measure of the receptor selectivity of the compound under investigation (e.g. Ki^μ /Ki^μ indicates the selectivity for δ-receptors versus μ-receptors).
A general note: Displacement assays read how much labelled ligand stays bound in the presence of the test substance.

Data set [2] deals with δ opioid receptor. Conditions: reported at 23rd European Peptide Symposium 1994; cited from earlier work.
In the next data set the target is T2, μ opioid receptor (Rattus norvegicus, UniProt P33535).
T2 construct: Male Sprague-Dawley rats (300-350 g) from the Canadian Breeding Laboratories were decapitated and after removal of the cerebellum the brains were homogenized; from tissue; host or cells: rat brain (without cerebellum) membranes, male Sprague-Dawley
T2 sequence (P33535 whole entry): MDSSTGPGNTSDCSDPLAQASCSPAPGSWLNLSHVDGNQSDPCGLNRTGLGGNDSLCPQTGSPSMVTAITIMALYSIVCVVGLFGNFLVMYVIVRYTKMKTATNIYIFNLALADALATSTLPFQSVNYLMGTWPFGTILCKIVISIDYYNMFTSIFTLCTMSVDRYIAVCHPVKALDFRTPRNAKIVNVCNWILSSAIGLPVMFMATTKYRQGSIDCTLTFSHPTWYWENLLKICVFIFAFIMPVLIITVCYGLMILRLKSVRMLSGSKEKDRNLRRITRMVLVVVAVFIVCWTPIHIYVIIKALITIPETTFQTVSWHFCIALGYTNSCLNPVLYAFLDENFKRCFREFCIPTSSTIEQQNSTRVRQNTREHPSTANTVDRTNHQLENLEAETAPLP
Put plainly: μ opioid receptor binding assay, displacement of [3H]DAMGO from rat brain membranes. Particulars: [3H]DAMGO 0.7 nM, Cheng-Prusoff. The procedure: as §3
The μ-, δ- and κ-opioid receptor affinities of all new analogs were determined in binding assays based on displacement of μ-, δ- and κ-selective radioligands from rat brain membrane binding sites. In the case of κ-ligands guinea pig brain homogenates were used, since the relative proportion of κ-binding sites is higher in guinea pig brain than in rat brain. The experimental procedure being used in our laboratory represents a modified version of the binding assay described by Pasternak et al. (Mol. Pharnacol. 11, 340-351 (1975)). Male Sprague-Dawley rats (300-350 g) from the Canadian Breeding Laboratories were decapitated and after removal of the cerebellum the brains were homogenized in 30 volumes of ice-cold standard buffer (50 mnM Tris HCl , pH 7.7). After centrifugation at 30,000×g for 30 min at 4° C. the membranes were reconstituted in the original volume of standard buffer and incubated for 30 min at 37° C. (to release bound endogenous ligands). Subsequent centrifugation and resuspension of the pellet in the initial volume of fresh standard buffer yielded the final membrane suspension. Aliquots (2 ml) of the membrane preparations were incubated for 1-2 h at 25° C. with 1 ml standard buffer containing the peptide to be tested and one of the following radioligands at the final concentration indicated: [^3 H]DAMGO, μ-selective, 0.7 nM; [^3 H]DSLET, […] nM; and [^3 H]U69,563, κ-selective, 0.5 nM. The incubation was terminated by filtration through Whatman GF/B filters under vacuum at 4° C. Following two washings with 5 ml portions of ice-cold standard buffer the filters were transferred to scintillation vials and treated with 1 ml Protosol (New England Nuclear) for 30 min prior to addition of 0.5 ml acetic acid and 10 ml Aquasol (New England Nuclear). After shaking for 30 min the vials were counted at an efficiency of 40-45%. All experiments were performed in duplicate and repeated at least three times. Specific binding of each of the three radioligands was defined by performing incubations in the presence of cold DAMGO, DSLET and U69,563, respectively, at a concentration of 1 micromolar. Values of half-maximal inhibition (IC50) of specific binding were obtained graphically from semilogarithmic plots. From the measured IC50-values, binding inhibition constants (Ki) were calculated based on Cheng and Prusoff's equation (Biochem. Pharmacol. 22, 3099-3102 (1973)). Ratios of the Ki -values determined in the μ-, δ- and κ-representative binding assays are a measure of the receptor selectivity of the compound under investigation (e.g. Ki^μ /Ki^μ indicates the selectivity for δ-receptors versus μ-receptors).

For the next data set, the system named is mouse tail flick test. Conditions: J. Kamei et al. 1995; cited from earlier work.

Where a SMILES comes first, the peptide text is derived from it. [ ]: non-standard residue; d: D form. The star is where a group is joined. Tic = O=C(O)[C@@H]1Cc2ccccc2CN1; NHPhenethyl = c1ccc(CCN*)cc1 A value given as a limit tells only on which side of the number the result lay.

The values below come from patent US6150335A, “Tic-containing opioid dipeptide derivatives useful as analgesics” (Astra AB, priority 1996, dated 2000).

T1 sequence (P33533 whole entry): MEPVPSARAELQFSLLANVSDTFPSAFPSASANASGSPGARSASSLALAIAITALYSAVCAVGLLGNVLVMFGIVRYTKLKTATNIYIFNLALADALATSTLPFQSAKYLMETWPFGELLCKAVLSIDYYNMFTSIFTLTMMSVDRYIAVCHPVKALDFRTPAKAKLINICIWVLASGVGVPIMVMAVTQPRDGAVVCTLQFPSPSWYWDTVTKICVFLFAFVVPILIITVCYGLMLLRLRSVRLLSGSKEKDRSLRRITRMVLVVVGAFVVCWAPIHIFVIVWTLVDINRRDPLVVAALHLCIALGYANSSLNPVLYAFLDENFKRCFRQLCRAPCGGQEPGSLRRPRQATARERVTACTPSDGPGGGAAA

As to `C=CCN1C[C@H](C)N([C@H](c2ccc(C(=O)N(CC)CC)cc2)c2cccc(O)c2)C[C@H]1C` (racemic) [BW 373U86, (±)-4-(a-R*)-a-(2S*,5R*)-4-allyl-2,5-dimethyl-1-piperazinyl)-3-hydroxybenzyl)-N,N-diethylbenzamide], the toxicity in mice entry with mice is “produced significant toxicity, manifested behaviorally as convulsions and barrel rolling”.

For the compound `N[C@@H](Cc1ccc(O)cc1)C(=O)N1Cc2ccccc2C[C@H]1C(=O)NCCc1ccccc1` [H-Tyr-Tic-NH--CH2 --CH2 --Ph, reference compound] (H-Tyr-[Tic]-NHPhenethyl), the IC50 amounted to 2120 nM in the data set on guinea pig ileum (GPI) and 82 ± 10 nM in the data set with mouse vas deferens (MVD). Further, the “GPI/MVD IC50 ratio” value in the data set on mouse vas deferens (MVD) is on record as 25.9. Further, the Ki turned out to be 5.22 ± 0.02 nM on δ opioid receptor [1] and 69.1 nM at μ opioid receptor. On δ opioid receptor [1], the “Ki^μ/Ki^δ” value stood at 13.2. In addition, the “δ agonist / antagonist properties” value in the data set with δ opioid receptor [2] is on record as “full, but only moderately potent δ agonist”.

In the data set on guinea pig ileum (GPI), `NC(Cc1ccc(O)cc1)C(=O)N1Cc2ccccc2CC1C(=O)NCC(c1ccccc1)c1ccccc1` (stereo not drawn) [Example 1, H-Tyr-Tic-NH--CH2 --CH--(Ph)2] gave an IC50 of 3630 ± 470 nM. For the same compound, in the data set with mouse vas deferens (MVD), the IC50 worked out at 3.77 ± 1.05 nM and the “GPI/MVD IC50 ratio” value was determined as 963. At δ opioid receptor [1], the Ki was 0.981 ± 0.038 nM and the “Ki^μ/Ki^δ” value is 29.4. This compound also had a Ki on μ opioid receptor of 28.8 ± 4.2 nM.

Turning to `N[C@@H](Cc1ccc(O)cc1)C(=O)N1Cc2ccccc2C[C@H]1C(=O)NCC(CO)c1ccccc1` (single isomer, unassigned) [Example 28], the IC50 with guinea pig ileum (GPI) was > 10000 nM. Moreover, in the data set with mouse vas deferens (MVD), the IC50 turned out to be 92.6 ± 6 nM and the “GPI/MVD IC50 ratio” value is listed as > 108. On δ opioid receptor [1], the Ki stood at 7.8 ± 2.8 nM and the “Ki^μ/Ki^δ” value turned out to be 31.0. In addition, the Ki on μ opioid receptor was determined as 242 ± 20 nM.

On to `N[C@@H](Cc1ccc(O)cc1)C(=O)N1Cc2ccccc2C[C@H]1C(=O)NCC(CO)c1ccccc1` (single isomer, unassigned) [Example 27], for which the IC50 turned out to be 526 ± 51 nM in the data set on guinea pig ileum (GPI) and 13.6 ± 2.2 nM in the data set on mouse vas deferens (MVD). Besides, the “GPI/MVD IC50 ratio” value in the data set with mouse vas deferens (MVD) turned out to be 38.7. Besides, the Ki on δ opioid receptor [1] was found to be 1.26 ± 0.11 nM; at μ opioid receptor it was 70.3 ± 2.3 nM. On δ opioid receptor [1], the “Ki^μ/Ki^δ” value amounted to 55.8.

As to `N[C@@H](Cc1ccc(O)cc1)C(=O)N1Cc2ccccc2C[C@H]1C(=O)N[C@@H]1CCc2ccccc2C1` [Example 20, H-Tyr-Tic-2-R-At (At = aminotetralin)], in the data set with guinea pig ileum (GPI), the “GPI IC50” value is recorded as “partial”. This compound came in with an IC50 in the data set with mouse vas deferens (MVD) of 36.3 ± 3.58 nM. The Ki at δ opioid receptor [1] turned out to be 1.72 ± 0.17 nM; at μ opioid receptor it was 26.3 ± 2.3 nM. Also, on δ opioid receptor [1], the “Ki^μ/Ki^δ” value is given as 15.3.

As for `N[C@@H](Cc1ccc(O)cc1)C(=O)N1Cc2ccccc2C[C@H]1C(=O)NCCc1ccccc1-c1ccccc1` [Example 7], the IC50 with guinea pig ileum (GPI) was > 10000 nM. Also, in the data set on mouse vas deferens (MVD), the IC50 was found to be 418 ± 55 nM and the “GPI/MVD IC50 ratio” value was > 23.9. At δ opioid receptor [1], the Ki came to 4.76 ± 1.7 nM and the “Ki^μ/Ki^δ” value is 15.4. This compound displayed a Ki on μ opioid receptor of 73.5 ± 7.1 nM.

Regarding `NC(=O)C(CNC(=O)[C@@H]1Cc2ccccc2CN1C(=O)[C@@H](N)Cc1ccc(O)cc1)c1ccccc1` (single isomer, unassigned) [Example 17], the half-inhibitory concentration (IC50) with guinea pig ileum (GPI) was determined as 2140 ± 470 nM; with mouse vas deferens (MVD) it was 34 ± 2.9 nM. Besides, in the data set with mouse vas deferens (MVD), the “GPI/MVD IC50 ratio” value was 62.9. Besides, the Ki on δ opioid receptor [1] came to 21.5 ± 4.2 nM; on μ opioid receptor, 73.7 ± 0.6 nM. The “Ki^μ/Ki^δ” value on δ opioid receptor [1] is listed as 3.43.

Regarding `CN1CC[C@]2(c3cccc(O)c3)Cc3nc4ccccc4cc3C[C@H]2C1` [TAN-67, 2-methyl-4α,α-(3-hydroxyphenyl)-1,2,3,4,4a,5,12,12aα-octahydroquinolino[2,3,3-g]isoquinoline], the antinociceptive effect entry in the data set with mouse tail flick test is reported as “no significant antinociceptive effect”.

Take `CCOC(=O)C(CNC(=O)[C@@H]1Cc2ccccc2CN1C(=O)[C@@H](N)Cc1ccc(O)cc1C)c1ccccc1` (single isomer, unassigned) [Example 31]: in the data set with guinea pig ileum (GPI), the IC50 amounted to 869 ± 209 nM. In addition, in the data set on mouse vas deferens (MVD), the IC50 is 2.24 ± 0.33 nM and the “GPI/MVD IC50 ratio” value stood at 388. Moreover, on δ opioid receptor [1], the Ki was determined as 1.22 ± 0.04 nM and the “Ki^μ/Ki^δ” value is reported as 65.3. The compound also displayed a Ki at μ opioid receptor of 79.7 ± 2.3 nM.

The IC50 is the point on the concentration scale where inhibition reaches its midpoint. Read a high IC50 as a need for much substance. By Ki is commonly meant a dissociation constant, usually derived from enzyme kinetics or from competition with a known ligand. Low readings indicate tighter binding, high ones weaker binding.
